Measured values: US6730655B2, “Biphenyl diquaternary ammonium compounds” (Ciba Specialty Chemicals Corporation, priority 2000, dated 2004)

How the values were obtained:
[1] = system: Staphylococcus aureus ATCC 6538; settings: test substance 1600 ppm, contact time 5 minutes at 20° C., 0.3% bovine serum albumin
Procedure: Suspension Test to Determine the Bactericidal Activity in Accordance with the European Standard According to EN 1276
Staphylococcus aureus ATCC 6538.
5 minutes at 20° C. (+/−1° C.).
Inactivation Medium After the Contact Time
D/E neutralisation solution (Dey-Engley, consisting of 0.1% sodium thioglycolate,
0.5% Tween 80, and also 0.7% lecithin and sterile, deionised water ad 100%).
Casein/soybean flour peptone agar with lecithin, L-histidine, and Tween 80 as inactivating agent
(Merckoplate No. 18360, Merck-Darmstadt).
Incubation of the Test Plates
Precaration of the Pre-Culture
The bacteria cultures are cultured on casein/soybean flour peptone slant agar and incubated for from 18 to 24 hours at 37° C. They are then rinsed off with water and adjusted to a bacteria count of 1.5×10^8-5×10^8 CFU/ml.
All of the reagents required for the test are first equilibrated at 20° C. (+/−1° C.). 1.0 ml of 0.3% bovine serum albumin (in deionised water) is introduced into a test tube. After the addition of 1.0 ml of bacteria suspension (1.5×10^8-5×10^8 CFU/ml), the solution is mixed and maintained at 20° C. for 2 minutes (+/−10 seconds). 8.0 ml of the test substance (2000 ppm solution in water) are then added. The mixture is incubated for 5 minutes at 20° C. (+/−1° C.). […] After the period of incubation, the number of colonies is counted and quoted as a logarithmic reduction (log 10) of the bacteria.

[2] = system: Candida albicans ATCC 10231; settings: Sabouraud agar, 2 days at 37° C.
Text: (§1) Determination of the Minimum Inhibitory Concentration (MIC Value)
(§2) The procedure to determine the antimicrobial activity of the compounds of the invention is as follows:
(§3) Casein/soybean flour peptone bouillon for the preparation of pre-cultures of the test bacteria and yeast.
(§4) Sabouraud agar for determining the MIC value of Aspergillus niger and Candida albicans.
(§5) deionised water or EtOH as solvent.
(§6) The test substances are predissolved in deionised water or in ethanol and incorporated in a dilution series in agar warmed to 47-50° C.
(§7) Bacteria and yeast are incubated for from 18 to 24 hours at 37° C. in casein/soybean flour peptone bouillon.
(§8) All the test organisms are adjusted to an organism count of from 10^6 to 10^7 CFU/ml using 0.85% sodium chloride solution.
(§9) The organism suspensions are each pipetted in an amount of 10 μl onto an agar plate containing the test substance. The test batches are then incubated for 2 days at 37° C. (bacteria and yeast) or for 3 days at 28° C. (Aspergillus niger). In order to check the influence of the solvent used (deionised water, ethanol), organism suspensions are in addition incubated on agar plates without test substances (control plates).
(§10) After incubation, the growth of the microorganisms on the test substances is compared with the control plates. The minimum inhibitory concentration (MIC value) is the concentration of substance at which (compared with the control plates) a clear inhibition of growth of the test organisms is to be ascertained.
(§11) The microbiological data ascertained are compiled in Table 1.

[3] = system: Aspergillus niger ATCC 6275; settings: Sabouraud agar, 3 days at 28° C.
Procedure: as §1, §2
Sabouraud agar for the pre-culture of Aspergillus niger.
as §4, §5, §6
The mould is cultured on Sabouraud agar and rinsed off with 0.85% sodium chloride solution containing 0.01% Triton X-100.
as §8, §9, §10, §11

[4] = system: Staphylococcus hominis DSM 20328; settings: Mueller Hinton agar, 2 days at 37° C.
Text: as §1, §2, §3
(§12) Mueller Hinton agar for determining the MIC value of bacteria.
as §5, §6, §7, §8, §9, §10, §11

[5] = system: Escherichia coli NCTC 8196; settings: Mueller Hinton agar, 2 days at 37° C.
Text: as §1, §2, §3, §12, §5, §6, §7, §8, §9, §10, §11

CCCCCC[N+](C)(C)Cc1ccc(-c2ccc(C[N+](C)(C)CCCCCC)cc2)cc1.[Cl-].[Cl-] [Compound of formula (2), 4,4′-Bis(N,N-dimethyl-N-hexyl-ammoniummethyl)biphenyl dichloride]
Logarithmic reduction Staphylococcus aureus [1]: 5.6 log 10
MIC values C. albicans [2]: 50 ppm
MIC values A. niger [3]: 2.5 ppm
MIC values S. hominis [4]: 50 ppm
MIC values E. coli [5]: 5 ppm

CCCCCCCC[N+](C)(C)Cc1ccc(-c2ccc(C[N+](C)(C)CCCCCCCC)cc2)cc1.[Cl-].[Cl-] [Compound of formula (3), 4,4′-Bis(N,N-dimethyl-N-octyl-ammoniummethyl)biphenyl dichloride]
Logarithmic reduction Staphylococcus aureus [1]: 5.6 log 10
MIC values C. albicans [2]: 10 ppm
MIC values A. niger [3]: 2.5 ppm
MIC values S. hominis [4]: 5 ppm
MIC values E. coli [5]: 1 ppm

CCCCCCCCCCCC[N+](C)(C)Cc1ccc(-c2ccc(C[N+](C)(C)CCCCCCCCCCCC)cc2)cc1.[Cl-].[Cl-] [Compound of formula (4), 4,4′-Bis(N,N-dimethyl-N-dodecyl-ammoniummethyl)biphenyl dichloride]
MIC values C. albicans [2]: 25 ppm
MIC values A. niger [3]: 100 ppm
MIC values S. hominis [4]: 10 ppm
MIC values E. coli [5]: 250 ppm

CCCCCCCCCCCCCCCC[N+](C)(C)Cc1ccc(-c2ccc(C[N+](C)(C)CCCCCCCCCCCCCCCC)cc2)cc1.[Cl-].[Cl-] [Compound of formula (5), 4,4′-Bis(N,N-dimethyl-N-hexadecyl-ammoniummethyl)biphenyl dichloride]
MIC values C. albicans [2]: 500 ppm
MIC values A. niger [3]: 1000 ppm
MIC values S. hominis [4]: 100 ppm
MIC values E. coli [5]: 1000 ppm
